Source: patent publication US20020098509A1, “Method for the quantitative determination of reversible acting inhibitors of the oxidoreductases” (priority 1995, published 2002)
Where two headings read alike, the source gives them in different places.

What was measured:
sarcosine oxidase [1] = assay: Stirred vessel system, initial gradient of oxygen or hydrogen peroxide signal; type: biochemical; details: for effect of substrate concentration on inhibition of the sarcosine oxidase, FIG. 16: 0.1 g/l sarcosine compared to 1.0 g/l sarcosine
Text: In contrast to the FIA system the stirred vessel system is a discontinuous process. In order to perform a measurement all necessary reaction partners are brought into the reaction chamber of the stirred vessel system and the course of reaction is been monitored by the appropriate detectors during a fixed time period. Afterwards the whole reaction mixture is removed. Then a new measurement can be done.
The reaction mixture of the stirred vessel system in FIG. 11 consists of the sample, substrate, buffer solution and enzyme. Here, the sample and the enzyme are added one after another and the sample itself containing the analyte, acetic acid for instance, in different concentrations. […] The result of the measurement is calculated from the initial gradient of the signal.
During the calibration via the initial gradient samples of different analyte concentration are added and the relating initial inclines are drawn into the chart in dependence of the analyte concentration (see FIGS. 12, 13 and 14). The sample containing the unknown analyte concentration is added to the reaction mixture in the same manner and is determined by using the initial incline which is compared to the calibration curve.

sarcosine oxidase [2] = details: for inhibition of the sarcosine oxidase activity, FIG. 10: sarcosine oxidase 100 U
Text: In FIA systems an injected volume of the sample is transported to the detector by a continuous moving, not segmented carrier or transport flow via a mixing and reaction line. Meanwhile, the injected sample zone is broadened (dispersion) and reacts with the ingredients of the carrier flow. As a result of the chemical conversion, the changes in concentration of the participating components lead to a change of signal at the detector, which is characteristic for the concentration of the determined substance of the injected sample. In FIG. 1 the analyte (acetic acid) as well as the substrate (sarcosine) are injected as a sample into the carrier flow consisting of the working buffer. The mixing and reacting line contains the immobilized enzyme sarcosine oxidase, which reacts with the analyte and the substrate of the sample. The decrease of oxygen or the production of hydrogene peroxide is measured by means of an oxygen or hydrogene peroxide electrode. A typical measuring signal is reproduced in FIG. 2. The peak high H or surface S is proportional to the concentration of the sample. When calibrating via the peak heights, samples of different analyte concentrations are injected and the resulting peak heights in dependence of their analyte concentrations are drawn into a chart (FIG. 3). The sample of unknown analyte concentration is injected in the same manner and can be determined via the peak height with the help of the calibration curve. In FIG. 4 the substrate is added to the buffer solution and calibration is done by injecting the analyte. Again the analysis of the unknown sample can be be done by using the calibration curve as described in FIG. 5.

SMILES	effect of substrate concentration on inhibition of the sarcosine oxidase, FIG. 16 (sarcosine oxidase [1])	amount of inhibition of the sarcosine oxidase (relative initial incline versus analyte concentration), FIG. 15 (sarcosine oxidase [1]; comparison of analytes, acetate and propionate as reference curves)	inhibition of the sarcosine oxidase activity, FIG. 10 (sarcosine oxidase [2]; 0.25 g/l respectively 0.5 g/l sarcosine)	inhibition of the sarcosine oxidase activity, FIG. 10 (sarcosine oxidase [2]; 1 g/l or 2 g/l sarcosine)	inhibitor strength (inhibition of the measuring system), FIG. 7 (sarcosine oxidase [2]; substances arising in biotechnological media, maximum concentration 0.1 mol/l)
CC=O [acetaldehyde]	only slightly influenced	lower	–	–	–
CCC(=O)O [propionate]	substantial higher inhibition	–	–	–	–
CC(=O)O [acetate]	substantial higher inhibition	–	a considerable amount of inhibition	only a small amount of inhibition	quite strong
